Three compounds from US9586967B2, “Pyrrolo pyrimidine derivative” (ONO PHARMACEUTICAL CO., LTD., priority 2013, dated 2017) can be followed below.

Where a name gives a salt, the structure may show the parent alone.

One assay deals with Ba/F3 Axl. Nature of the assay: Measurement of proliferation suppression rate using mouse pro-B cell line (Ba/F3 Axl) stably expressing Axl. The class given is cell-based. The following applies: BaF3, Ba/F3 Axl cells, 48 hours, CELLTITER-GLO, read-out: Proliferation suppression, value of 50% inhibition rate (IC50 value). On the procedure: Measurement of Proliferation Suppression Rate by Using Mouse Pro-B Cell Line (Ba/F3 Axl) Stably Expressing Axl
A 0.1 mmol/L DMSO solution of the test compound was dispensed into a 96-well plate, and further a 3-fold dilution series was prepared using DMSO. DMSO solutions of test compounds, having various concentrations, were further 500-fold diluted with a RPMI1640 medium (containing 10% HI-FBS and 1% penicillin) and a diluted solution of the test compound having […] with respect to the final concentration was prepared. In each well of the 96-well plate (BD Biosciences) for measurement, 50 μL of a RPMI medium was added to the Blank group, 50 μL of a RPMI medium containing 0.2% DMSO was added to the medium group, and 50 μL of the diluted solution of the test compound was added to the test compound group, respectively. Ba/F3 Axl was diluted with a medium to have a density of 2×10^5 cells/mL to prepare a cell suspension. In each well of the 96-well plate for measurement, 50 μL each of the RPMI medium was added to the Blank group, and 50 μL each of the cell suspension was added to the medium group and the test compound group, respectively, and the groups were stood still at 37° C. at 5% CO2 for 48 hours. After standing still, Relative Light Unit (RLU) was measured by using CELLTITER-GLO (registered trademark) LUMINESCENT CELL VIABILITY ASSAY (Promega). The measurement was carried out according to the attached instruction. To each well, 100 μL each of light-emitting solution was added. The plate was stirred at room temperature for 3 min and then stood still at room temperature with light shielded for 10 minutes, and RLU was measured by using Microplate Reader (SpectraMax M5e, Molecular Devices). The average values of RLU of the Blank group and the medium group were respectively calculated, and the proliferation suppression rate of the test compound group was calculated. Proliferation suppression rate (%)={1−(RLU of test compound group−A)/(B−A)}×100 [Math. 2] A: Average value of RLU of Blank group B: Average value of RLU of medium group […]
Background: ATP-based viability assays read luminescence as a measure of living cells.

A further assay concerns the target T1, Axl enzyme (Homo sapiens, UniProt P30530).
T1 sequence (P30530 26-894): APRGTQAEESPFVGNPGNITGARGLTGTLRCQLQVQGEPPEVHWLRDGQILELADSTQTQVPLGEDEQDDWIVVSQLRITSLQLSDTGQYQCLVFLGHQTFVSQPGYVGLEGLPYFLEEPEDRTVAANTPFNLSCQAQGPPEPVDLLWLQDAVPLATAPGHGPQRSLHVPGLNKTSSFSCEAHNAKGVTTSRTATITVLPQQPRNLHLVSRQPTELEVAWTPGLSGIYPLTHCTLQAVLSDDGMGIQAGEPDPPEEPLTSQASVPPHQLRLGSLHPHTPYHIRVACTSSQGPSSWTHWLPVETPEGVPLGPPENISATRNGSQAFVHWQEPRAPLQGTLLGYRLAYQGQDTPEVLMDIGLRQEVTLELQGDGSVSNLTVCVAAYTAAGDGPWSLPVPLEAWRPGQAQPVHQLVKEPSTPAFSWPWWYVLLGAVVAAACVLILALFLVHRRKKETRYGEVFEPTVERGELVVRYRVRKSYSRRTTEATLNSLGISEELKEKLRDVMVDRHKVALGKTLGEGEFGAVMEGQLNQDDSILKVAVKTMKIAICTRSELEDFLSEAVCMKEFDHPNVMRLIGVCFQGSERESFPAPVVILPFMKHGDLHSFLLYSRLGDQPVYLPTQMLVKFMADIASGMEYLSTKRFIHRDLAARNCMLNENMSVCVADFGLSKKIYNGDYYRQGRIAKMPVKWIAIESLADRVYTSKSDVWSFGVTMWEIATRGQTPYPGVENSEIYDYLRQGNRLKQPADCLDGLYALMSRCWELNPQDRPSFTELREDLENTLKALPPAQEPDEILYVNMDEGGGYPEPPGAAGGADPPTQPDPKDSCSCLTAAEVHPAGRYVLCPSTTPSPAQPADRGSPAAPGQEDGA
Nature of the assay: Measurement of Axl inhibitory activity (in vitro test, LanthaScreen TR-FRET). Type of assay: biochemical. The note with it: Fluorescein-Poly GT substrate, ATP, read-out: Axl enzyme inhibitory activity, value of 50% inhibition rate (IC50 value). On the procedure: Measurement of Axl Inhibitory Activity (In Vitro Test)
The Axl enzyme inhibitory activity was measured by using LanthaScreen (registered trademark) system (Invitrogen) based on the attached instruction. The reagents used are shown below.
Reaction buffer solution: A solution containing 50 mmol/L HEPES (pH7.5), 0.01% Brij35, 10 mmol/L MgCl2 and 1 mmol/L EGTA was prepared by using purified water.
Test substance solution: A solution containing a test compound of 5-fold concentration with respect to the final concentration was prepared by 20-fold diluting a DMSO solution of the test compound of each concentration with the reaction buffer solution.
Enzyme solution: A solution containing 400 ng/mL Axl enzyme was prepared by using the reaction buffer solution.
Substrate solution: A solution containing 45 μmmol/L ATP and 500 nmmol/L Fluorescein-Poly GT (Invitrogen) was prepared by using the reaction buffer solution.
Detection solution: A solution containing 20 mM EDTA and 4 nM PY20 (Invitrogen) was prepared by using Dilution B (Invitrogen).
A 10 mmol/L DMSO solution of the test compound was dispensed into a 96-well plate (Nunc), and, furthermore, a 3-fold dilution series was prepared using DMSO. In each well of the 96-well plate for measurement, 5 μL each of the reaction buffer solution containing DMSO was added to a Blank group and a medium group, and 5 μL of the test substance solution was added to the test substance group, respectively. […] After standing still, fluorescence intensity at 520 nm and 495 nm at the time of irradiation with exciting light of 340 nm was measured by using Analyst GT (Molecular Devices). The phosphorylation of the artificial substrate was quantified by Time-resolved Fluorescence Resonance Energy Transfer (TR-FRET). The TR-FRET ratio was calculated by dividing 520 nm fluorescence signal by 495 nm fluorescence signal for each well, and the inhibition rate (%) in the test compound group was calculated based on the following mathematical formula. […]
In general terms: In TR-FRET formats the signal depends on donor and acceptor labels being close together.

Take `Cn1cc(-c2ccc(NC(=O)c3cc(C(F)(F)F)cn(-c4ccccc4)c3=O)cc2)c2c(N)ncnc21` [Example 30, N-[4-(4-amino-7-methyl-7H-pyrrolo[2,3-d]pyrimidin-5-yl)phenyl]-2-oxo-1-phenyl-5-(trifluoromethyl)-1,2-dihydro-3-pyridinecarboxamide trifluoroacetate]: the IC50 worked out at 10.6 nM in the assay with Ba/F3 Axl and 8 nM on Axl enzyme.

Consider `CC#CC(=O)NCc1ccc(C(=O)Nc2ccc(-c3cn(C)c4ncnc(N)c34)cc2)c(=O)n1-c1ccccc1` [Example 26, N-[4-(4-amino-7-methyl-7H-pyrrolo[2,3-d]pyrimidine-5-yl)phenyl]-6-[(2-butynoylamino)methyl]-2-oxo-1-phenyl-1,2-dihydro-3-pyridinecarboxamide], for which the IC50 in the assay on Ba/F3 Axl came to 0.8 nM; at Axl enzyme, 1.7 nM.

Turning to `Cn1cc(-c2ccc(NC(=O)c3cc4c(n(-c5ccccc5)c3=O)CC3(CC3)CC4=O)nc2)c2c(N)ncnc21` [Example 45(24), N-[5-(4-amino-7-methyl-7H-pyrrolo[2,3-d]pyrimidin-5-yl)-2-pyridinyl]-2′,5′-dioxo-1′-phenyl-2′,5′,6′,8′-tetrahydro-1′H-spiro[cyclopropane-1,7′-quinoline]-3′-carboxamide], the IC50 in the assay with Ba/F3 Axl came to 7 nM; on Axl enzyme, 9.7 nM.
